Experimental data from PubChem BioAssay (NCI).
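The compound was tested at five concentrations on cells cultured in 96-well plates, with a 48-hour exposure period. At the TGI there is no net growth.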

Key:
Test in all cases: inhibition of tumour cell growth, NCI panel, 48 h
786-0 renal = tested on: 786-0 renal
A498 renal = tested on: A498 renal
A549 NSCLC = tested on: A549 NSCLC
ACHN renal = tested on: ACHN renal
BT-549 breast = tested on: BT-549 breast
CAKI-1 renal = tested on: CAKI-1 renal
CCRF-CEM leukemia = tested on: CCRF-CEM leukemia
COLO 205 colon = tested on: COLO 205 colon
DU-145 prostate = tested on: DU-145 prostate
EKVX NSCLC = tested on: EKVX NSCLC
HCT-116 colon = tested on: HCT-116 colon
HCT-15 colon = tested on: HCT-15 colon
HL-60(TB) leukemia = tested on: HL-60(TB) leukemia
HOP-62 NSCLC = tested on: HOP-62 NSCLC
HOP-92 NSCLC = tested on: HOP-92 NSCLC
HS 578T breast = tested on: HS 578T breast
HT29 colon = tested on: HT29 colon
IGROV1 ovarian = tested on: IGROV1 ovarian
K-562 leukemia = tested on: K-562 leukemia
KM12 colon = tested on: KM12 colon
LOX IMVI melanoma = tested on: LOX IMVI melanoma
M14 melanoma = tested on: M14 melanoma
MALME-3M melanoma = tested on: MALME-3M melanoma
MCF7 breast = tested on: MCF7 breast
MDA-MB-231 breast = tested on: MDA-MB-231 breast
MDA-MB-435 = tested on: MDA-MB-435
MDA-N = tested on: MDA-N
MOLT-4 leukemia = tested on: MOLT-4 leukemia
NCI-H226 lung = tested on: NCI-H226 lung
NCI-H23 lung = tested on: NCI-H23 lung
NCI-H460 lung = tested on: NCI-H460 lung
NCI-H522 lung = tested on: NCI-H522 lung
NCI/ADR-RES ovarian = tested on: NCI/ADR-RES ovarian
OVCAR-3 ovarian = tested on: OVCAR-3 ovarian
OVCAR-4 ovarian = tested on: OVCAR-4 ovarian
OVCAR-5 ovarian = tested on: OVCAR-5 ovarian
OVCAR-8 ovarian = tested on: OVCAR-8 ovarian
PC-3 prostate = tested on: PC-3 prostate
RPMI-8226 leukemia = tested on: RPMI-8226 leukemia
RXF 393 renal = tested on: RXF 393 renal
SF-268 CNS = tested on: SF-268 CNS
SF-295 CNS = tested on: SF-295 CNS
SF-539 CNS = tested on: SF-539 CNS
SK-MEL-2 melanoma = tested on: SK-MEL-2 melanoma
SK-MEL-28 melanoma = tested on: SK-MEL-28 melanoma
SK-MEL-5 melanoma = tested on: SK-MEL-5 melanoma
SK-OV-3 ovarian = tested on: SK-OV-3 ovarian
SN12C renal = tested on: SN12C renal
SNB-19 CNS = tested on: SNB-19 CNS
SNB-75 CNS = tested on: SNB-75 CNS
SR leukemia = tested on: SR leukemia
SW-620 colon = tested on: SW-620 colon
T-47D breast = tested on: T-47D breast
TK-10 renal = tested on: TK-10 renal
U251 CNS = tested on: U251 CNS
UACC-257 melanoma = tested on: UACC-257 melanoma
UACC-62 melanoma = tested on: UACC-62 melanoma
UO-31 renal = tested on: UO-31 renal
HCC-2998 colon = tested on: HCC-2998 colon

Measured: TGI

O=C(O)/C=C(/C(=O)O)C12CCN3CC4=CCOC5CC(=O)NC1C5C4CC32 (centres undefined)
> 100 µM: 786-0 renal | A498 renal | A549 NSCLC | ACHN renal | BT-549 breast | CAKI-1 renal | CCRF-CEM leukemia | COLO 205 colon | DU-145 prostate | EKVX NSCLC | HCT-116 colon | HCT-15 colon | HL-60(TB) leukemia | HOP-62 NSCLC | HOP-92 NSCLC | HS 578T breast | HT29 colon | IGROV1 ovarian | K-562 leukemia | KM12 colon | LOX IMVI melanoma | M14 melanoma | MALME-3M melanoma | MCF7 breast | MDA-MB-231 breast | MDA-MB-435 | MDA-N | MOLT-4 leukemia | NCI-H226 lung | NCI-H23 lung | NCI-H460 lung | NCI-H522 lung | NCI/ADR-RES ovarian | OVCAR-3 ovarian | OVCAR-4 ovarian | OVCAR-5 ovarian | OVCAR-8 ovarian | PC-3 prostate | RPMI-8226 leukemia | RXF 393 renal | SF-268 CNS | SF-295 CNS | SF-539 CNS | SK-MEL-2 melanoma | SK-MEL-28 melanoma | SK-MEL-5 melanoma | SK-OV-3 ovarian | SN12C renal | SNB-19 CNS | SNB-75 CNS | SR leukemia | SW-620 colon | T-47D breast | TK-10 renal | U251 CNS | UACC-257 melanoma | UACC-62 melanoma | UO-31 renal

CC(=N/N=C/c1ccccn1)/C(C)=N/N=C(C)/C(C)=N/N=C(C)/C(C)=N/N=C(C)/C(C)=N\N=C\c1ccccn1
> 100 µM: 786-0 renal | A498 renal | A549 NSCLC | ACHN renal | BT-549 breast | CAKI-1 renal | COLO 205 colon | DU-145 prostate | EKVX NSCLC | HCC-2998 colon | HCT-116 colon | HCT-15 colon | HL-60(TB) leukemia | HOP-62 NSCLC | HOP-92 NSCLC | HS 578T breast | HT29 colon | IGROV1 ovarian | K-562 leukemia | KM12 colon | LOX IMVI melanoma | M14 melanoma | MALME-3M melanoma | MCF7 breast | MDA-MB-231 breast | MDA-MB-435 | MDA-N | NCI-H226 lung | NCI-H23 lung | NCI-H460 lung | NCI-H522 lung | NCI/ADR-RES ovarian | OVCAR-3 ovarian | OVCAR-4 ovarian | OVCAR-5 ovarian | OVCAR-8 ovarian | PC-3 prostate | RPMI-8226 leukemia | RXF 393 renal | SF-268 CNS | SF-295 CNS | SF-539 CNS | SK-MEL-2 melanoma | SK-MEL-28 melanoma | SK-MEL-5 melanoma | SK-OV-3 ovarian | SN12C renal | SNB-19 CNS | SNB-75 CNS | SR leukemia | SW-620 colon | T-47D breast | TK-10 renal | U251 CNS | UACC-257 melanoma | UO-31 renal
